One series deals with A549. As to the kind of experiment: Cytotoxicity against human A549 cells assessed as inhibition of cell growth after 24 hrs by MTT assay. It counts as functional, cell-based. The following applies: A549, 24 h.
Series [1] can be described thus: Cytotoxicity against human Bel7402 cells assessed as inhibition of cell growth after 24 hrs by MTT assay. The following applies: Bel-7402, 24 h. The class given is functional, cell-based. On the technique in general: Formazan colour is commonly taken as a measure of viable cells.
For another series, the system named is SMMC-7721. As to the kind of experiment: Cytotoxicity against human SMMC7721 cells assessed as inhibition of cell growth after 24 hrs by MTT assay. The class given is functional, cell-based. To be noted: SMMC-7721, 24 h.
A short description of series [2]: Cytotoxicity against human HL7702 cells assessed as inhibition of cell growth after 24 hrs by MTT assay. The class given is cell-based. To be noted: L02, 24 h.
Series [3] is described as follows: Hemolytic activity in rabbit RBC assessed as induction of hemolysis. The class given is cell-based, Oryctolagus cuniculus, Erythrocyte. To be noted: red blood cells, read-out: HD50 (the source's name).
Series [4] in a line: Ratio of hemolytic HD50 for PSD to hemolytic HD50 for compound in rabbit RBC. It counts as ADME, cell-based, Oryctolagus cuniculus. The following applies: erythrocyte.
Series [5] in a line: Induction of hemolysis in erythrocytes (unknown origin). It counts as cell-based, Erythrocyte. To be noted: read-out: HD50 (the source's name).
In series [6] the test system is Mus musculus. As to the kind of experiment: Toxicity in mouse assessed as induction of induction of death at 0.1 mL/10 g, iv. It counts as organism-based. The following applies: in vivo.
For series [7], the system named is Mus musculus. In words: Toxicity in mouse assessed as induction of hematuria at 0.1 mL/10 g, iv. The class given is organism-based. To be noted: in vivo.
The nature of series [8]: Toxicity in iv dosed mouse assessed as tolerance dose. The class given is organism-based. To be noted: in vivo.
Series [9] relates to Mus musculus. In words: Toxicity in mouse assessed as death time at 0.1 mL/10 g, iv. To be noted: in vivo. The class given is organism-based.

The structures appear in SMILES notation.

For orientation: IC50 means the concentration that gives 50% inhibition. By MTD is commonly meant the largest dose that counted as tolerated.

`C[C@@H]1O[C@@H](O[C@H]2[C@H](O[C@H]3CC[C@@]4(C)[C@@H](CC[C@]5(C)[C@@H]4CC=C4[C@@H]6CC(C)(C)CC[C@]6(C(=O)NCC(=O)O)CC[C@]45C)[C@]3(C)CO)OC[C@H](O[C@@H]3O[C@H](CO)[C@@H](O)[C@H](O)[C@H]3O)[C@@H]2O)[C@H](O)[C@H](O)[C@H]1O`: the IC50 with A549 was determined as 5.7 µM; in [1], 4.3 µM; in the series with SMMC-7721, 1.6 µM; in [2] it was 1.5 µM. In addition, the HC50 in [3] came to 160 µM. The Ratio in [4] amounted to 20.
Consider `C[C@@H]1O[C@@H](O[C@H]2[C@H](O[C@H]3CC[C@@]4(C)[C@@H](CC[C@]5(C)[C@@H]4CC=C4[C@@H]6CC(C)(C)CC[C@]6(C(=O)O)CC[C@]45C)[C@]3(C)CO)OC[C@H](O)[C@@H]2O)[C@H](O)[C@H](O)[C@H]1O` [ALPHA-HEDERIN], for which the HC50 in series [5] is 10 µM; in series [3] it was 7.5 µM. Besides, the IC50 in the series with A549 came to 15.3 µM; in series [1], 13.2 µM; in the series on SMMC-7721 it was 10.8 µM; in series [2] it was 11.5 µM.
For the molecule `C[C@@H]1O[C@@H](O[C@H]2[C@H](O[C@H]3CC[C@@]4(C)[C@@H](CC[C@]5(C)[C@@H]4CC=C4[C@@H]6CC(C)(C)CC[C@]6(C(=O)N6CCC[C@H]6C(=O)O)CC[C@]45C)[C@]3(C)CO)OC[C@H](O[C@@H]3O[C@H](CO)[C@@H](O)[C@H](O)[C@H]3O)[C@@H]2O)[C@H](O)[C@H](O)[C@H]1O`, the IC50 with A549 was 71.1 µM; in [1], 97.8 µM; in the series with SMMC-7721, 46.8 µM; in [2], over 100 µM. For the same molecule, the HC50 in [3] came out at 326 µM. The Ratio in series [4] turned out to be 20.
Take `C[C@@H]1O[C@@H](O[C@H]2[C@H](O[C@H]3CC[C@@]4(C)[C@@H](CC[C@]5(C)[C@@H]4CC=C4[C@@H]6CC(C)(C)CC[C@]6(C(=O)[O-])CC[C@]45C)[C@]3(C)CO)OC[C@H](O[C@@H]3O[C@H](CO)[C@@H](O)[C@H](O)[C@H]3O)[C@@H]2O)[C@H](O)[C@H](O)[C@H]1O.[Na+]`: the Activity entry in the series with Mus musculus [6] and in the series on Mus musculus [7] was “Toxic” throughout. Moreover, the MTD in [8] was determined as 10 mg/kg. In addition, the Time in the series on Mus musculus [9] is on record as under 60 min.
Consider `C[C@@H]1O[C@@H](O[C@H]2[C@H](O[C@H]3CC[C@@]4(C)[C@@H](CC[C@]5(C)[C@@H]4CC=C4[C@@H]6CC(C)(C)CC[C@]6(C(=O)N[C@H](CO)C(=O)O)CC[C@]45C)[C@]3(C)CO)OC[C@H](O[C@@H]3O[C@H](CO)[C@@H](O)[C@H](O)[C@H]3O)[C@@H]2O)[C@H](O)[C@H](O)[C@H]1O`, for which the IC50 was 72.3 µM in the series on A549, 93.1 µM in [1], over 100 µM with SMMC-7721 and over 100 µM in series [2]. Moreover, the HC50 in series [3] was found to be 60.3 µM. The Ratio in [4] came out at 20.
On to `C[C@@H]1O[C@@H](O[C@H]2[C@H](O[C@H]3CC[C@@]4(C)[C@@H](CC[C@]5(C)[C@@H]4CC=C4[C@@H]6CC(C)(C)CC[C@]6(C(=O)O)CC[C@]45C)[C@]3(C)CO)OC[C@H](O[C@@H]3O[C@H](CO)[C@@H](O)[C@H](O)[C@H]3O)[C@@H]2O)[C@H](O)[C@H](O)[C@H]1O` [HEDERACOLCHISIDE A], for which the values for the HC50 in [5] and in series [3] were 22 µM and 6.3 µM, respectively. Moreover, the IC50 was 6.3 µM with A549, 8.9 µM in series [1], 7.6 µM in the series on SMMC-7721 and 12.6 µM in series [2].
Regarding `C[C@@H]1O[C@@H](O[C@H]2[C@H](O[C@H]3CC[C@@]4(C)[C@@H](CC[C@]5(C)[C@@H]4CC=C4[C@@H]6CC(C)(C)CC[C@]6(C(=O)N6CCN(CCC(=O)O)CC6)CC[C@]45C)[C@]3(C)CO)OC[C@H](O[C@@H]3O[C@H](CO)[C@@H](O)[C@H](O)[C@H]3O)[C@@H]2O)[C@H](O)[C@H](O)[C@H]1O`, the IC50 in the series on A549 is 1.9 µM; in series [1] it was 9.8 µM; in the series on SMMC-7721 it was 14.5 µM; in series [2], 1.3 µM. In series [3], the HC50 was found to be 119 µM. Besides, in [4], the Ratio was determined as 20.

Source of the values: ChEMBL document CHEMBL3425467, “Synthesis, cytotoxicity and haemolytic activity of Pulsatilla saponin A, D derivatives” (Bioorg Med Chem Lett, 2015).
